The results in this text go back to patent US12668568B2, “Adamantanyl-substituted benzamide compounds and their use as P2X7 receptor antagonists” (The University of Sydney, priority 2018, dated 2026).

Molecules are shown by their SMILES. Like-named read-outs stand apart in the source and are kept apart here.

Series [1] can be described thus: Plasma protein binding, rapid equilibrium dialysis. As to conditions: rat plasma, 4 hours 37° C., read-out: pb (% bound) Plasma (converted). The class given is in vitro ADME. As to the method:
(§1) Determining the extent to which a molecule binds to factors present within plasma and brain is a critical phase of drug development as this determines not only the free unbound fraction available to exert the desired pharmacological actions but also influences dosing, clearance rate and the potential for drug-drug interactions. Binding is measured with the rapid equilibrium dialysis technique using cartridges consisting of two compartments (sample and buffer chamber) separated by a dialysis membrane.
(§2) All compounds are prepared in 100% DMSO to provide 10 mM stock solutions. Sample material is prepared by spiking a known volume of plasma or brain with the stock solution such that the final concentration of compound is 1 μM. This is placed in the sample chamber of the dialysis cartridge. Dialysis buffer is then added to the buffer chamber and the cartridge incubated at 37° C. for 4 hours. Following the incubation the test compound concentrations are determined in the two chambers and the % free or bound component calculated using the equation below:
(§3) [formula] [formula] In Vivo Pharmacokinetic Studies

Series [2] is described as follows: Brain tissue binding, rapid equilibrium dialysis. The format is in vitro ADME. As to conditions: rat brain tissue, 4 hours 37° C., read-out: pb (% bound) Brain (converted). How it is done:
as §1, §2, §3
(In equilibrium dialysis free small molecules cross a membrane that holds back macromolecules.)

In another series the target is T1, hP2X7R (Homo sapiens, UniProt Q99572).
T1 sequence (Q99572 1-595): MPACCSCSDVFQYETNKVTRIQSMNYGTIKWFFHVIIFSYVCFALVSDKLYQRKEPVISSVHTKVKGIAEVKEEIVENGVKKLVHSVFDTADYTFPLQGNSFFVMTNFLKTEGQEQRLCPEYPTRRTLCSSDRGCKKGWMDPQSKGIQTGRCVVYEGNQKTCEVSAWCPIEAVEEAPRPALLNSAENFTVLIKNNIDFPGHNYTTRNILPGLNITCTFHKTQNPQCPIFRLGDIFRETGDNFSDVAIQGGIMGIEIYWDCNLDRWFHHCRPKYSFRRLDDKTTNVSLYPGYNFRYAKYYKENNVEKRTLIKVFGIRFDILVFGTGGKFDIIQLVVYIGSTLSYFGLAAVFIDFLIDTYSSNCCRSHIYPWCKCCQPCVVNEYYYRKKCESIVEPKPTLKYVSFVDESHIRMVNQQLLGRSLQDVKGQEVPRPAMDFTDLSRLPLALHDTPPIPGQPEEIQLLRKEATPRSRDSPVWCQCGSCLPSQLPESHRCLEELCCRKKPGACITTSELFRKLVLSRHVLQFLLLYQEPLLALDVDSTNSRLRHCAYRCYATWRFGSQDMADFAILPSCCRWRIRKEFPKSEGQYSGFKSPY
The experiment in a line: Yo-Pro uptake assay for P2X7R pore formation in THP-1 cells. The class given is cell-based. Set-up: Following an overnight incubation (16 h) required for THP-1 differentiation; endogenous in cells; host or cells: THP-1 (ATCC), differentiated with LPS and IFN-gamma. As to conditions: for IC50: THP-1 cells, BzATP 100 μM, YO-PRO-1, mean ± standard deviation, n >4, read-out: Dye uptake IC50 hP2X7R; for LLE: pIC50 from dye uptake and LogD from HPLC. How it is done:
HEK293T cells transfected with cDNA for the human (HEK-hP2X7) or mouse P2X7 (HEK-mP2X7) receptor (a kind gift from Dr Leanne Stokes and Prof. Jim Wiley) were cultured in DMEM/F12 with 10% FBS and 500 μg/mL G418 (all from Invitrogen). Cells were cultured in 75 cm^2 flasks and incubated at 37° C. in a 5% CO2 humidified atmosphere, maintained in log phase of growth and passaged when cell density reached 1×10^6 cells/mL (every 2-3 days).^3
P2X7R pore formation was assessed by agonist-induced uptake of the Yo-Pro-1 iodide dye. […] Final treatments (in triplicate) were made up in phosphate buffered saline (PBS), without divalent cations, containing PRO®-1 dye (2 μM). Cells were washed once in pre-warmed PBS and treatments were added to cells, with or without 2′(3′)-O-(4-benzoylbenzoyl)adenosine 5′-triphosphate (BzATP, 100 μM) as agonist. Dye uptake was measured at 37° C. using a fluorescence plate reader (BMG Labtech); with data read at λEx485nm/λEm520nm at 30 sec intervals over a 70 min period. […] IC50 values were determined from concentration-response curves derived from a four-parameter variable slope, analyzed in GraphPad Prism® (San Diego, CA).

A short description of series [3]: In vivo pharmacokinetic study, intravenous bolus. The note with it: rat, 1 mg/kg intravenous bolus; for AUC / AUC(0-inf) / clearance / Tmax / Vd / Cmax / half-life: male, Hans Wistar. As to the method:
Male Hans Wistar rats were purchased from Charles River Laboratories UK. During the acclimatisation period the rats were group housed in cages of three and maintained under a 12 hour light/dark cycle with free access to food and water. Temperature and humidity were controlled according to UK Home Office regulations.
All compounds were formulated immediately prior to dosing in 10% DMSO, 20% Cremophor EL, 70% saline to provide 1 mg/ml solutions. Each rat received a weight corrected dose of formulated drug at 1 mg/kg administered by intravenous bolus injection via a lateral tail vein.
Terminal plasma and brain samples were collected from n=3 animals at specified time points (0.017, 0.083, 0.25, 0.5, 1, 2, 4 and 6 hours following dose administration).
Drug quantification was performed using liquid chromatography-tandem mass spectrometry using electrospray ionisation. Pharmacokinetic parameters were calculated using Phoenix WinNonlin software.

Series [4] is described as follows: Lipophilicity: Log D7.4 determined by HPLC method. The class given is physicochemical. The note with it: for logD7.4 / chromatographic logD: HPLC retention time, 65 v/v % methanol in 50 mM sodium phosphate buffer pH 7.4; for chromatographic logD: reversed-phase HPLC, Waters Sunfire C18 5 µm column, read-out: logD7.4; for lipophilicity compared with compound 31: HPLC logD7.4. How it is done: Lipophilicity of the compounds was evaluated by an experimentally derived Log D7.4 value determined by a HPLC method.^1 It is preferred that the lipophilicity of the compounds is as low as possible.
High Performance Liquid Chromatography was performed on a Waters 2695 Separations module equipped with the Waters Alliance Series Column Heater (set at 30° C.) and Waters 2996 Photodiode Array (PDA) Detector. […] Standards and samples were dissolved in the elution solvent mixture and then filtered prior to injection. Data acquisition and processing was performed with the Waters Empower 2 software and Microsoft Excel™ was used for data analysis. All standards and samples were analyzed in triplicate.
. An […] curve was obtained (FIG. 1) which was fitted to the equation [Log D7.4=0.8342(RET)+1.7393] with an R^2 of 0.97.
The RET from three injections was averaged with the log D7.4 value extrapolated from the equation found in FIG. 1.

Where [5] appears, read: brain, read-out: T1/2 Brain (converted).
Where [6] appears, read: plasma, read-out: T1/2 Plasma (converted).

The IC50 is the midpoint of a concentration-inhibition curve. Broadly, the Tmax is the time at which the peak concentration occurs. Usually Vd stands for the apparent volume that relates the amount in the body to the concentration in plasma or blood. The term Cmax denotes the highest concentration seen after dosing.

Consider `COc1ccc(Cl)c(C(=O)NCC23CC4CC(CC(C4)C2)C3)c1` [Compound 31, reference compound], for which the fraction unbound at 4 h, 1 μM in series [1] is 0.0079; in series [2], 0.0027. Moreover, the IC50 on hP2X7R turned out to be 0.0105 ± 0.0031 µM. The LLE on hP2X7R turned out to be 3.75. Besides, the AUC in series [3] (brain, read-out: AUC6 Brain) stood at 0.221 µg·h/mL; in series [3] (plasma, read-out: AUC6 Plasma), 0.186 µg·h/mL. In addition, the AUC(0-inf) was found to be 0.246 µg·h/mL in series [3] (brain, read-out: AUC∞ Brain) and 0.192 µg·h/mL in series [3] (plasma, read-out: AUC∞ Plasma). Further, the clearance in series [3] (brain, read-out: Cl Brain) worked out at 4.07 L/h/kg; in series [3] (plasma, read-out: Cl Plasma), 5.21 L/h/kg. For the same molecule, the Tmax was found to be 1.2 min in series [3] (brain, read-out: Tmax Brain) and 1.2 min in series [3] (plasma, read-out: Tmax Plasma). The Vd in series [3] (brain, read-out: Vd Brain) turned out to be 0.77 L/kg; in series [3] (plasma, read-out: Vd Plasma), 2.09 L/kg. Moreover, in series [3] (plasma), the Cmax worked out at 1.19 µg/mL. In series [3] (brain), the “Cmax Brain” value is 1.696 µg/mL. Besides, the “T1/2 Brain” value in series [3] (brain) was 9.6 min. In addition, in series [3] (plasma), the “T1/2 Plasma” value was found to be 28.2 min. Besides, the logD7.4 in series [4] is reported as 4.23. In series [4], the chromatographic logD stood at 4.23.
In the case of `COc1ccc(Cl)c(C(=O)NCC23CC4CC(CC(F)(C4)C2)C3)c1` [Compound 3, 2-Chloro-N-((3-fluoroadamantan-1-yl)methyl)-5-methoxybenzamide], the figures for the fraction unbound at 4 h, 1 μM in series [1] and in series [2] were 0.0597 and 0.0309, respectively. The IC50 on hP2X7R is 0.0251 ± 0.0027 µM. In addition, the LLE on hP2X7R was determined as 4.33. For the same molecule, the AUC amounted to 0.286 µg·h/mL in series [3] (brain, read-out: AUC6 Brain) and 0.175 µg·h/mL in series [3] (plasma, read-out: AUC6 Plasma). The AUC(0-inf) in series [3] (brain, read-out: AUC∞ Brain) was found to be 0.291 µg·h/mL; in series [3] (plasma, read-out: AUC∞ Plasma) it was 0.178 µg·h/mL. Further, the clearance in series [3] (brain, read-out: Cl Brain) was 3.44 L/h/kg; in series [3] (plasma, read-out: Cl Plasma) it was 5.6 L/h/kg. The half-life in series [3] (setting [5]) and in series [3] (setting [6]) was 25.8 min throughout. Besides, the Tmax in series [3] (brain, read-out: Tmax Brain) is 1.2 min; in series [3] (plasma, read-out: Tmax Plasma), 1.2 min. The distribution volume (Vd) in series [3] (brain, read-out: Vd Brain) was 0.92 L/kg; in series [3] (plasma, read-out: Vd Plasma), 1.8 L/kg. Also, the peak level in series [3] (plasma) (Cmax) was 1.27 µg/mL. In addition, in series [3] (brain), the “Cmax Brain” value was 2.422 µg/mL. Besides, in series [4], the “lipophilicity compared with compound 31” value is reported as “less lipophilic than compound 31”. The logD7.4 in series [4] amounted to 3.27. Besides, the chromatographic logD in series [4] amounted to 3.27.
Turning to `COc1ccc(Cl)c(C(=O)NCC23CC4(F)CC(F)(CC(F)(C4)C2)C3)c1` [Compound 1, 2-Chloro-N-((3,5,7-trifluoroadamantan-1-yl)methyl)-5-methoxybenzamide], the values for the fraction unbound at 4 h, 1 μM in series [1] and in series [2] were 0.105 and 0.0549, respectively. The AUC was 0.38 µg·h/mL in series [3] (brain, read-out: AUC6 Brain) and 0.385 µg·h/mL in series [3] (plasma, read-out: AUC6 Plasma). Moreover, the AUC(0-inf) in series [3] (brain, read-out: AUC∞ Brain) was determined as 0.386 µg·h/mL; in series [3] (plasma, read-out: AUC∞ Plasma), 0.399 µg·h/mL. Also, the clearance in series [3] (brain, read-out: Cl Brain) turned out to be 2.59 L/h/kg; in series [3] (plasma, read-out: Cl Plasma) it was 2.51 L/h/kg. Also, the Tmax was found to be 1.2 min in series [3] (brain, read-out: Tmax Brain) and 1.2 min in series [3] (plasma, read-out: Tmax Plasma). Further, the Vd in series [3] (brain, read-out: Vd Brain) amounted to 2.1 L/kg; in series [3] (plasma, read-out: Vd Plasma), 2.75 L/kg. In series [3] (plasma), this molecule came in with a Cmax of 1.29 µg/mL. The “Cmax Brain” value in series [3] (brain) was determined as 1.464 µg/mL. Also, in series [3] (brain), the “T1/2 Brain” value came to 75.6 min. Further, the “T1/2 Plasma” value in series [3] (plasma) came to 103 min. The “lipophilicity compared with compound 31” value in series [4] was “less lipophilic than compound 31”. Also, the logD7.4 in series [4] is given as 2.83. Besides, in series [4], the chromatographic logD is 2.83.
Take `COc1ccc(Cl)c(C(=O)NCC23CC4CC(F)(CC(F)(C4)C2)C3)c1` [Compound 2, 2-Chloro-N-((3,5-difluoroadamantan-1-yl)methyl)-5-methoxybenzamide]: the values for the fraction unbound at 4 h, 1 μM in series [1] and in series [2] were 0.115 and 0.085, respectively. Further, on hP2X7R, the half-inhibitory concentration (IC50) was 0.0309 ± 0.008 µM. This molecule had an LLE at hP2X7R of 4.66. Further, the AUC was 0.209 µg·h/mL in series [3] (brain, read-out: AUC6 Brain) and 0.196 µg·h/mL in series [3] (plasma, read-out: AUC6 Plasma). The AUC(0-inf) in series [3] (brain, read-out: AUC∞ Brain) stood at 0.217 µg·h/mL; in series [3] (plasma, read-out: AUC∞ Plasma) it was 0.199 µg·h/mL. For the same molecule, the clearance in series [3] (brain, read-out: Cl Brain) stood at 4.61 L/h/kg; in series [3] (plasma, read-out: Cl Plasma) it was 5.01 L/h/kg. Moreover, the figures for the half-life in series [3] (setting [5]) and in series [3] (setting [6]) were 35.4 min and 28.2 min, respectively. The Tmax turned out to be 1.2 min in series [3] (brain, read-out: Tmax Brain) and 1.2 min in series [3] (plasma, read-out: Tmax Plasma). Further, the distribution volume (Vd) in series [3] (brain, read-out: Vd Brain) came to 1.54 L/kg; in series [3] (plasma, read-out: Vd Plasma), 1.41 L/kg. The molecule also registered a Cmax in series [3] (plasma) of 1.72 µg/mL. Further, in series [3] (brain), the “Cmax Brain” value was found to be 1.838 µg/mL. Besides, in series [4], the “lipophilicity compared with compound 31” value is listed as “less lipophilic than compound 31”. The molecule further came in with a logD7.4 in series [4] of 2.85. Besides, the chromatographic logD in series [4] came out at 2.85.
